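Grown in 96-well plates, cells were treated for 48 hours with each compound at five concentrations. Insufficient inhibition: endpoint recorded as highest concentration tested. The concentration for 50% growth inhibition is given as GI50.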 Active and inactive are the calls of the source. Cut-off read from the data, not from the text of the source: active = GI50 up to about 1.1 µM and inactive = higher.
Columns and labels:
Assay in all cases: NCI anticancer screen, dose series, 48 h
786-0 = test system: 786-0
A498 = test system: A498
A549 = test system: A549
ACHN = test system: ACHN
CCRF-CEM = test system: CCRF-CEM
COLO 205 = test system: COLO 205
DLD-1 = test system: DLD-1
DMS-114 = test system: DMS-114
DMS-273 = test system: DMS-273
EKVX = test system: EKVX
HCC 2998 = test system: HCC 2998
HCT-116 = test system: HCT-116
HCT-15 = test system: HCT-15
HOP-62 = test system: HOP-62
HOP-92 = test system: HOP-92
HT-29 = test system: HT-29
IGROV-1 = test system: IGROV-1
K562 = test system: K562
KM-20L2 = test system: KM-20L2
KM12 = test system: KM12
LOX IMVI = test system: LOX IMVI
LXFL 529 = test system: LXFL 529
M14 = test system: M14
M19-MEL = test system: M19-MEL
MOLT-4 = test system: MOLT-4
Malme-3M = test system: Malme-3M
NCI-H23 = test system: NCI-H23
NCI-H460 = test system: NCI-H460
NCI-H522 = test system: NCI-H522
OVCAR-3 = test system: OVCAR-3
OVCAR-4 = test system: OVCAR-4
OVCAR-5 = test system: OVCAR-5
OVCAR-8 = test system: OVCAR-8
RPMI-8226 = test system: RPMI-8226
RXF 631 = test system: RXF 631
SF-268 = test system: SF-268
SF-295 = test system: SF-295
SF-539 = test system: SF-539
SK-MEL-28 = test system: SK-MEL-28
SK-MEL-2 = test system: SK-MEL-2
SK-MEL-5 = test system: SK-MEL-5
SK-OV-3 = test system: SK-OV-3
SN12C = test system: SN12C
SNB-19 = test system: SNB-19
SNB-75 = test system: SNB-75
SNB-78 = test system: SNB-78
SW-620 = test system: SW-620
TK-10 = test system: TK-10
U-251 = test system: U-251
UACC-257 = test system: UACC-257
UACC-62 = test system: UACC-62
UO-31 = test system: UO-31
XF498 = test system: XF498
HL-60 = test system: HL-60
HOP-18 = test system: HOP-18
NCI-H226 = test system: NCI-H226
RXF 393 = test system: RXF 393
SR = test system: SR
CAKI-1 = test system: CAKI-1

Measured: GI50

NC(=O)c1c(-c2ccccc2)c(-c2ccccc2)cc2c(=O)c3ccccc3[nH]c12
29.8 µM: HCT-15
inactive: 786-0 8.53 µM | A498 19.4 µM | A549 23.8 µM | ACHN 16.4 µM | CCRF-CEM 31.4 µM | COLO 205 29 µM | DLD-1 35.3 µM | DMS-114 21.8 µM | DMS-273 19.9 µM | EKVX 41.2 µM | HCC 2998 43.2 µM | HCT-116 14.4 µM | HOP-62 24.2 µM | HOP-92 24.9 µM | HT-29 18.9 µM | IGROV-1 22.1 µM | K562 30.3 µM | KM-20L2 21 µM | KM12 21.8 µM | LOX IMVI 45.5 µM | LXFL 529 16.1 µM | M14 33.2 µM | M19-MEL 27.6 µM | MOLT-4 16.4 µM | Malme-3M 17.9 µM | NCI-H23 17.5 µM | NCI-H460 22.2 µM | NCI-H522 5.85 µM | OVCAR-3 23.1 µM | OVCAR-4 12.5 µM | OVCAR-5 65.8 µM | OVCAR-8 20.8 µM | RPMI-8226 28.4 µM | RXF 631 27.4 µM | SF-268 39 µM | SF-295 40.4 µM | SF-539 17.5 µM | SK-MEL-28 17.8 µM | SK-MEL-2 19.9 µM | SK-MEL-5 13.7 µM | SK-OV-3 25.3 µM | SN12C 40 µM | SNB-19 21 µM | SNB-75 23.6 µM | SNB-78 22.3 µM | SW-620 37.1 µM | TK-10 18.5 µM | U-251 31.7 µM | UACC-257 40.6 µM | UACC-62 25.5 µM | UO-31 33.7 µM | XF498 18 µM

CC1=C(C(=O)Nc2ccccc2C)C(c2ccccc2C)C(C(=O)Nc2ccccc2C)=C(C)N1
18.7 µM: HCT-15
inactive: 786-0 17.6 µM | A498 16.8 µM | A549 30.6 µM | ACHN 15.7 µM | COLO 205 24.3 µM | DLD-1 14.7 µM | DMS-114 26.6 µM | EKVX 20.7 µM | HCC 2998 18.5 µM | HCT-116 20.4 µM | HL-60 17 µM | HOP-18 18.4 µM | HOP-62 25.2 µM | HOP-92 10.1 µM | HT-29 20.3 µM | IGROV-1 18.5 µM | K562 19.8 µM | KM-20L2 20.9 µM | KM12 18.4 µM | LOX IMVI 15 µM | LXFL 529 > 10 µM | M19-MEL 21.7 µM | MOLT-4 > 10 µM | Malme-3M 18.2 µM | NCI-H226 21.5 µM | NCI-H23 21.5 µM | NCI-H460 22.6 µM | NCI-H522 14.8 µM | OVCAR-3 16.6 µM | OVCAR-4 24.4 µM | OVCAR-5 23.3 µM | OVCAR-8 19.1 µM | RPMI-8226 24 µM | RXF 393 12.3 µM | RXF 631 26.1 µM | SF-268 20.4 µM | SF-295 20.1 µM | SF-539 > 10 µM | SK-MEL-28 19.9 µM | SK-MEL-2 18.7 µM | SN12C 18 µM | SNB-19 22.6 µM | SNB-75 22.4 µM | SNB-78 33 µM | SR 24.2 µM | SW-620 18.1 µM | TK-10 28.8 µM | U-251 19.5 µM | UACC-257 27.5 µM | UO-31 14.5 µM | XF498 18.7 µM

CC1(C)OC(=O)C(c2ccsc2)C(=O)O1
inactive: 786-0 > 100 µM | A549 > 100 µM | ACHN > 100 µM | CAKI-1 > 100 µM | CCRF-CEM > 100 µM | COLO 205 > 100 µM | DLD-1 > 100 µM | DMS-114 > 100 µM | DMS-273 > 100 µM | EKVX > 100 µM | HCC 2998 > 100 µM | HCT-116 > 100 µM | HL-60 > 100 µM | HOP-18 > 100 µM | HOP-62 > 100 µM | HOP-92 > 100 µM | HT-29 > 100 µM | K562 > 100 µM | KM-20L2 > 100 µM | KM12 > 100 µM | LOX IMVI > 100 µM | LXFL 529 > 100 µM | M14 > 100 µM | M19-MEL > 100 µM | MOLT-4 > 100 µM | Malme-3M > 100 µM | NCI-H226 > 100 µM | NCI-H23 > 100 µM | NCI-H460 > 100 µM | NCI-H522 > 100 µM | OVCAR-3 > 100 µM | OVCAR-4 > 100 µM | OVCAR-5 > 100 µM | OVCAR-8 > 100 µM | RPMI-8226 > 100 µM | RXF 393 > 100 µM | RXF 631 > 100 µM | SF-268 > 100 µM | SF-295 > 100 µM | SF-539 > 100 µM | SK-MEL-28 > 100 µM | SK-MEL-2 > 100 µM | SK-MEL-5 > 100 µM | SK-OV-3 > 100 µM | SN12C > 100 µM | SNB-19 > 100 µM | SNB-75 > 100 µM | SNB-78 > 100 µM | SR > 100 µM | SW-620 > 100 µM | TK-10 > 100 µM | U-251 > 100 µM | UACC-257 > 100 µM | UACC-62 > 100 µM | UO-31 > 100 µM | XF498 > 100 µM
> 100 µM: HCT-15
